Assay [1] has as its target T1, peripheral type CCK receptors in rat pancreas (Rattus norvegicus, UniProt P30551).
T1 construct: Pancreas was obtained from male Sprague-Dawley rats; from tissue; host or cells: pancreas membranes of male Sprague-Dawley rats
T1 sequence (P30551 1-444): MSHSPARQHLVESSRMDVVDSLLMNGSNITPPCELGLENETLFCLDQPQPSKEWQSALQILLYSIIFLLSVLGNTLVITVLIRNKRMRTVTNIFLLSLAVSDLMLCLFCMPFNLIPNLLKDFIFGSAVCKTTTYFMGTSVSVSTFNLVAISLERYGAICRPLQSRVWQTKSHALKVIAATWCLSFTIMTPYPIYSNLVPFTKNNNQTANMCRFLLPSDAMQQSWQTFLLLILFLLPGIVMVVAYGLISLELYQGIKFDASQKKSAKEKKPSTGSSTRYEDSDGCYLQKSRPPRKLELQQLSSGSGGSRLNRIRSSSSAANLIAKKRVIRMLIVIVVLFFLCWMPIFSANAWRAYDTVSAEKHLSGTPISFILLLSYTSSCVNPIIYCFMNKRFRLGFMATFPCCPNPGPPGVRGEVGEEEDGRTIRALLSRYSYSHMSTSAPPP
Briefly: Binding to peripheral type CCK receptors in rat pancreas (3H-L-364,718). As to the method: Binding to peripheral type CCK receptors in rat pancreas was done according to the method of Chang et al. (Mol. Pharmacol. 30: 212-217, 1986) using ^3 H-L364, 718. Pancreas was obtained from male Sprague-Dawley rats, 150-200 g, after decapitation, and dissected free from adipose and connective tissue. The tissue was homogenized in 30 volumes of 50 mM Tris buffer, pH 7.4 and centrifuged at 40,000 g for 10 min. The tissue pellet was washed by resuspension and centrifugation as described above. The final pellet was suspended in 500 volumes of assay buffer (50 mM Tris buffer, pH 7.4, 5 mM MgCl2, 0.14 mg/ml bacitracin, and 5 mM dithiothreitol) to give a protein concentration of 30-60 μg/200 μl . Reagent volumes for the assay were the same as those used for CCK binding to brain membranes. Tritium labeled L-364,718 (Dupont NEN, NET-971) was used as the ligand at a concentration of 0.4-0.6 nM. The samples were incubated 1 hour at room temperature and then filtered as described for the CCK-brain receptor. Scintillation cocktail was added to the filters which were counted for radioactivity using a Micromedic Taurus automatic liquid scintillation counter.
Compound samples were prepared and IC-50 values were determined as described for the CCK-brain experiments. Non-specific binding was that amount left bound to the filters after adding 100 nM L-364,718.

In another assay the target is T2, brain CCK receptor (Mus musculus, UniProt P56481).
T2 construct: from tissue; host or cells: forebrain membranes of male CF-1 mice
T2 sequence (P56481 1-453): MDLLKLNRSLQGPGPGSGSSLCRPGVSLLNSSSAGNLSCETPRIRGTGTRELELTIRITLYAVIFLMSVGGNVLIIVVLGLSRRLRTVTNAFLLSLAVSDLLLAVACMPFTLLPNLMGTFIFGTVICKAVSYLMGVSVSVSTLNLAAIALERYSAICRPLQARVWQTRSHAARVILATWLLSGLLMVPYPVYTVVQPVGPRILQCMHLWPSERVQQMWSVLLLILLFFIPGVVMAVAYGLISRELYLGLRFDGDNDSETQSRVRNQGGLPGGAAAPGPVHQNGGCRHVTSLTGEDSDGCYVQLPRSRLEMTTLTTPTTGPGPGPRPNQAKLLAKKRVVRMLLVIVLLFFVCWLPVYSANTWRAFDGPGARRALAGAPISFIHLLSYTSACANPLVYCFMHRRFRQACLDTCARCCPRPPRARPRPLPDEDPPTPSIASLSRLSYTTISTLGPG
Put plainly: CCK receptor binding, mouse brain membranes (125I-CCK-8 sulfate). As to conditions: for inhibition at 1 µM / inhibition at 10 µM: read-out: Brain Percent Inhibition; for pIC50: mouse brain membranes, read-out: Brain IC50. The protocol: Brain CCK receptor binding was performed using mouse brain membranes according to the method of Chang and Lotti (Proc. Natl. Acad. Sci. 83: 4923-4926, 1986). Male CF-1 mice, 23-25 g were sacrificed by cervical dislocation, the forebrain removed and placed in ice cold 50 mM Tris buffer, pH 7.4. The tissue was homogenized in 100 volumes of the Tris buffer with a Brinkman Polytron or Tekmar Tissumizer and then centrifuged at 40,000 g for 10 min. Pellets were resuspended in Tris buffer, centrifuged as above and then resuspended in 100 volumes of assay buffer, pH 6.5 (20 mM N-2-hydroxyethyl-piperazine-N'-2-ethane sulfonic acid (HEPES), 1 mM ethylene glycol his (2-aminoethyl ether-N,N,N',N'-tetraacetic acid) (EGTA), 5 mM MgCl2, 130 mM NaCl, and 0.25 mg/ml bacitracin). The binding assay consisted of 50 μL of compound (or buffer for total binding), 50 μL of ^125 I-CCK-8 sulfate (20 pM) (Amersham IM- 159), 200 μL of assay buffer and 200 μL of homogenate (80-120 μg protein). The samples were incubated at room temperature (25°) for 2 hours, and they were then filtered through GF/B glass fiber filters (soaked in wash buffer for 2 hours before use) using a 48 well Brandel cell harvester designed for receptor binding. The filters were washed twice with 3 ml of 50 mM Tris buffer, pH 7.4, containing 0.01% BSA and then counted for radioactivity in plastic tubes with a Micromedic 10/600 automatic gamma counter.
Compounds were dissolved in dimethyl sulfoxide (DMSO) at a concentration of 10 mM and then further diluted with assay buffer. The concentration of DMSO in the incubation was 0.1% or less and had no effect on the assay at that level. IC-50 values of displacement curves were determined using 7 concentrations of compound and were calculated using the ALLFIT computer program of DeLean, Munson and Rodbard (Am. J. Physiol. 235: E97-E102, 1978). Non-specific binding was determined as the displacement of the radioligand by 100 nM CCK-8 sulfate.

Setting [2] is: read-out: Pancreas Percent Inhibition.

Each structure is given as a SMILES string. pIC50: −log10 of the molar value.

Take `O=C1NN(C(=O)Nc2cccc3ccccc23)[C@@H](c2ccccc2)[C@@H]1c1ccccc1` (relative stereo) [Example 90]: the inhibition (usually the share of the control response that was lost under treatment) at 10 µM in assay [1] (setting [2]) was determined as 63%. Moreover, the inhibition at 1 µM at brain CCK receptor amounted to 45%.

In the case of `CN1C(=O)[C@H](c2ccccc2)[C@@H](c2ccccc2)N1C(=O)Nc1cccc(Cl)c1Cl` (relative stereo) [Example 66], the values for the inhibition at 10 µM (in assay [1] (setting [2]); at brain CCK receptor) were 23% and 40%, respectively.

`O=C1NN(C(=S)Nc2cccc(Cl)c2Cl)[C@H](c2ccccc2)[C@H]1c1ccccc1` (relative stereo) [Example 64]: the inhibition at 1 µM in assay [1] (at 1 μM, read-out: Pancreas Percent Inhibition) was found to be 34%. The negative logarithm of the IC50 (pIC50) (commonly the IC50 on a negative log10 scale, so that one unit is a factor of ten) at brain CCK receptor is 5.28.

As to `O=C1NN(C(=O)N2CCc3ccccc3C2)[C@@H](c2ccccc2)[C@@H]1c1ccccc1` (relative stereo) [Example 109], the inhibition at 10 µM in assay [1] (setting [2]) came to 11%. In addition, the pIC50 on brain CCK receptor is 5.22.

For the compound `O=C1NN(C(=O)Nc2ccc(Cl)cc2)[C@@H](c2ccccc2)[C@@H]1c1ccccc1` (relative stereo) [Example 18], in assay [1] (setting [2]), the inhibition at 10 µM was 22%. Further, the pIC50 at brain CCK receptor was 7.03.

In the case of `O=C(O)CN1C(=O)[C@@H](c2ccccc2)[C@H](c2ccccc2)N1C(=O)Nc1ccc(Br)cc1` (relative stereo) [Example 12 (N--), 1-[(4-Bromophenyl)aminocarbonyl]-2-carboxymethyl-4,5-diphenyl-3-pyrazolidinone], the inhibition at 10 µM in assay [1] (setting [2]) worked out at 55%. Further, the pIC50 on brain CCK receptor is 5.72.

Take `O=C1CC(c2ccc(-c3ccccc3)cc2)N(C(=O)Nc2cccc(Cl)c2Cl)N1` (centres unmarked) [Example 68]: the inhibition at 10 µM in assay [1] (setting [2]) is 70%. On brain CCK receptor, the negative logarithm of the IC50 (pIC50) was 5.37.

Turning to `CCCCc1ccc(NC(=O)N2NC(=O)[C@@H](c3ccccc3)[C@@H]2c2ccccc2)cc1` (relative stereo) [Example 28], in assay [1] (setting [2]), the inhibition at 10 µM stood at 55%. Besides, the negative logarithm of the IC50 (pIC50) at brain CCK receptor was 6.36.

In the case of `COc1cccc(NC(=O)N2NC(=O)[C@H](c3ccccc3)[C@H]2c2ccccc2)c1` (relative stereo) [Example 42], the inhibition at 10 µM in assay [1] (setting [2]) turned out to be 37%. Moreover, the pIC50 at brain CCK receptor was 6.11.

Take `O=C1NN(C(=O)Nc2ccc([N+](=O)[O-])cc2)[C@@H](c2ccccc2)[C@@H]1c1ccccc1` (relative stereo) [Example 24]: the inhibition at 10 µM in assay [1] (setting [2]) was 45%. Further, the pIC50 at brain CCK receptor is 6.82.

In the case of `O=C1NN(C(=O)Nc2ccc(F)cc2F)[C@H](c2ccccc2)[C@H]1c1ccccc1` (relative stereo) [Example 56], in assay [1] (setting [2]), the inhibition at 10 µM came out at 15%. Further, the inhibition at 1 µM at brain CCK receptor amounted to 25%.

Turning to `O=C1NN(C(=O)Nc2cc(C(F)(F)F)ccc2Cl)[C@H](c2ccccc2)[C@H]1c1ccccc1` (relative stereo) [Example 57], the inhibition at 10 µM in assay [1] (setting [2]) turned out to be 45%. The pIC50 on brain CCK receptor is 6.00.

As for `O=C1NN(C(=S)Nc2ccc(Cl)c(C(F)(F)F)c2)[C@H](c2ccccc2)[C@H]1c1ccccc1` (relative stereo) [Example 63], the results for the pIC50 (in assay [1] (rat pancreas); on brain CCK receptor) were 7.12 and 6.29, respectively.

Consider `O=C1NN(C(=O)NCCc2ccccc2)[C@@H](c2ccccc2)[C@@H]1c1ccccc1` (relative stereo) [Example 105], for which the inhibition at 10 µM in assay [1] (setting [2]) is 43%. Moreover, at brain CCK receptor, the pIC50 is 6.31.

Take `O=C1NN(C(=O)Nc2cccc([N+](=O)[O-])c2)[C@H](c2ccccc2)[C@H]1c1ccccc1` (relative stereo) [Example 40]: in assay [1] (setting [2]), the inhibition at 10 µM is 38%. Besides, the pIC50 on brain CCK receptor is 6.12.

On to `O=C1NN(c2nc3ccc(Br)cc3s2)[C@@H](c2ccccc2)[C@@H]1c1ccccc1` (relative stereo) [Example 85], for which the inhibition at 10 µM in assay [1] (setting [2]) turned out to be 19%; on brain CCK receptor it was 78%.

For `O=C1NN(C(=O)Nc2ccncc2)[C@@H](c2ccccc2)[C@@H]1c1ccccc1` (relative stereo) [Example 89], the inhibition at 10 µM in assay [1] (setting [2]) came to 21%; on brain CCK receptor, 34%.

With `COc1ccc(NC(=O)N2NC(=O)[C@H](c3ccccc3)[C@H]2c2ccccc2)cc1OC` (relative stereo) [Example 51], the inhibition at 10 µM in assay [1] (setting [2]) came to 25%. Besides, the inhibition at 1 µM at brain CCK receptor came to 18%.

As for `O=C1NN(C(=O)Nc2ccc(F)c(Cl)c2)[C@H](c2ccccc2)[C@H]1c1ccccc1` (relative stereo) [Example 47], the inhibition at 10 µM in assay [1] (setting [2]) was determined as 51%. Also, the negative-log IC50 (pIC50) on brain CCK receptor was 6.41.

Turning to `O=C1NN(c2nc3ccccc3s2)[C@@H](c2ccccc2)[C@@H]1c1ccccc1` (relative stereo) [Example 84], the inhibition at 10 µM stood at 26% in assay [1] (setting [2]) and 70% at brain CCK receptor.

For the compound `O=C1NN(C(=O)Nc2ccc(F)cc2)[C@@H](c2ccccc2)[C@@H]1c1ccccc1` (relative stereo) [Example 17], the inhibition at 10 µM in assay [1] (setting [2]) amounted to 6%. For the same compound, the pIC50 at brain CCK receptor is 6.28.

As to `O=C1NN(C(=O)Cc2cccc(C(F)(F)F)c2)[C@H](c2ccccc2)[C@H]1c1ccccc1` (relative stereo) [Example 76], the inhibition at 10 µM was 4% in assay [1] (setting [2]) and 55% on brain CCK receptor.

`O=C1NN(C(=O)Nc2ccc(Br)cc2)C(c2ccc([N+](=O)[O-])cc2)C1c1ccccc1` (centres unmarked) [Example 119]: the inhibition at 10 µM in assay [1] (setting [2]) amounted to 64%. In addition, the pIC50 on brain CCK receptor was 5.92.

For the compound `O=C1NN(C(=O)Nc2ccccc2C(F)(F)F)[C@H](c2ccccc2)[C@H]1c1ccccc1` (relative stereo) [Example 53], the inhibition at 10 µM in assay [1] (setting [2]) was 17%. Moreover, the pIC50 on brain CCK receptor was 5.92.

For `O=C1NN(C(=O)Cc2ccc(C(F)(F)F)cc2)[C@H](c2ccccc2)[C@H]1c1ccccc1` (relative stereo) [Example 77], the inhibition at 10 µM in assay [1] (setting [2]) was found to be 20%; on brain CCK receptor, 56%.

Take `O=C1NN(C(=O)Nc2cccc(OCc3ccccc3)c2)[C@H](c2ccccc2)[C@H]1c1ccccc1` (relative stereo) [Example 44]: in assay [1] (setting [2]), the inhibition at 10 µM was 67%. For the same compound, on brain CCK receptor, the pIC50 is 6.59.

Consider `O=C1NN(C(=O)Sc2ccc(Br)cc2)[C@@H](c2ccccc2)[C@@H]1c1ccccc1` (relative stereo) [Example 81], for which the inhibition at 10 µM in assay [1] (setting [2]) worked out at 59%; at brain CCK receptor it was 95%.

Regarding `O=C1NN(C(=O)c2ccc(Cl)c(Cl)c2)[C@H](c2ccccc2)[C@H]1c1ccccc1` (relative stereo) [Example 75], the inhibition at 10 µM in assay [1] (setting [2]) amounted to 40%; on brain CCK receptor it was 60%.

Source of the values: patent publication US5399565A, “Pyrazolidinone CCK and gastrin antagonists and pharmaceutical formulations therof” (priority 1993, dated 1995).
